A word on the MIC: it is the least concentration at which growth counts as inhibited. Read a low MIC as greater potency.

Data set [1] has as its system Staphylococcus aureus X1.1. As to the kind of experiment: Agar-dilution MIC, Staphylococcus aureus X1.1. In kind it is cell-based. The protocol:
(§1) The MIC's in Table IV were determined by conventional agar-dilution assays.

In data set [2] the test system is Streptococcus sp. group D 2041. The data set is described as follows: Agar-dilution MIC, Streptococcus sp. group D 2041. In kind it is cell-based. The protocol:
as §1

In data set [3] the test system is Staphylococcus aureus V41. As to the kind of experiment: Agar-dilution MIC, Staphylococcus aureus V41. In kind it is cell-based. How it is done:
as §1

The subject of data set [4] is Staphylococcus aureus S13E. The settings on record: agar dilution. How it is done:
as §1
For orientation: In agar dilution the substance is mixed into plates at graded concentrations.

The subject of data set [5] is Staphylococcus aureus X400. The data set is described as follows: Agar-dilution MIC, Staphylococcus aureus X400. In kind it is cell-based. The protocol: as §1
Another data set deals with Streptococcus pyogenes. As to the kind of experiment: In vivo protection of experimentally infected mice (ED50). The settings on record: administered subcutaneously, doses given 1 and 4 hours postinfection. The protocol:
The formula 1a compounds have shown in vivo antimicrobial activity against experimentally-induced infections in laboratory animals. When two doses of test compound were administered to mice experimentally infected with Streptococcus pyogenes or Staphylococcus aureus, the activity observed was measured as an ED50 value [effective dose in mg/kg to protect 50% of the test animals: see Warren Wick, et al., J. Bacteriol. 81, 233-235 (1961)].

Data set [6] can be described thus: Relative toxicity, median lethal dose in mice. The format is in vivo. The settings on record: administered IP in mice. An excerpt:
Table VI summarizes the relative toxicity of illustrative formula 1a compounds.
^a When administered IP in mice

For data set [7], the system named is Staphylococcus epidermidis 222. The data set is described as follows: Agar-dilution MIC, Staphylococcus epidermidis 222. The format is cell-based.
Data set [8] deals with Staphylococcus epidermidis EPI1. The format is cell-based. The settings on record: agar dilution. How it is done: as §1
The test system of data set [9] is Streptococcus pneumoniae Park 1. In kind it is cell-based. As to conditions: agar dilution. How it is done: as §1
Data set [10] relates to Streptococcus sp. group D X66. The data set is described as follows: Agar-dilution MIC, Streptococcus sp. group D X66. In kind it is cell-based. How it is done: as §1
The test system of data set [11] is Streptococcus pyogenes C203. As to the kind of experiment: Agar-dilution MIC, Streptococcus pyogenes C203. The format is cell-based. How it is done:
as §1

Where only a bound is given, the exact number is not on record here.

For the substance “NTrp -(n-Decanoyl)-A54145F Nucleus [Compound 10]”, the MIC in [1] amounted to 16 µg/mL; in [2], 128 µg/mL; in data set [3], 16 µg/mL; in data set [4], 16 µg/mL; in data set [5], 16 µg/mL; in data set [7], 16 µg/mL. Moreover, the MIC stood at 16 µg/mL in [8], 32 µg/mL in [9], 128 µg/mL in [10] and 4 µg/mL in data set [11]. Also, the “ED50 vs. Streptococcus pyogenes” value in the data set with Streptococcus pyogenes is on record as 10.8 mg/kg × 2. The “Median Lethal Dose” value in data set [6] is > 505 mg/kg.

On to “NTrp -(n-Dodecanoyl)-A54145A Nucleus [Compound 4]”, for which the MIC came out at 1 µg/mL in [1]; 8 µg/mL in data set [2]; 1 µg/mL in data set [3]; 2 µg/mL in data set [4]; 1 µg/mL in [5]; 1 µg/mL in data set [7]. The MIC came out at 1 µg/mL in data set [8], 2 µg/mL in [9], 4 µg/mL in [10] and 0.125 µg/mL in [11]. For the same substance, in the data set with Streptococcus pyogenes, the “ED50 vs. Streptococcus pyogenes” value is reported as 1.15 mg/kg × 2. Besides, the “Median Lethal Dose” value in data set [6] turned out to be 321 mg/kg.

As to “NTrp -(n-Nonanoyl)-A54154A Nucleus [Compound 6]”, the MIC was 32 µg/mL in [1]; 32 µg/mL in data set [3]; 32 µg/mL in data set [4]; 32 µg/mL in data set [5]; 16 µg/mL in data set [7]; 16 µg/mL in [8]. In addition, the MIC in data set [9] came out at 64 µg/mL; in data set [10], 128 µg/mL; in data set [11], 4 µg/mL. Besides, the “ED50 vs. Streptococcus pyogenes” value in the data set on Streptococcus pyogenes is 10.6 mg/kg × 2. Moreover, the “Median Lethal Dose” value in data set [6] is > 510 mg/kg.

“NTrp -(n-Tetradecanoyl)-A54145 Nucleus [Compound 26]”: the MIC in data set [1] was determined as 0.25 µg/mL; in data set [2] it was 4 µg/mL; in [3], 0.25 µg/mL; in [4] it was 0.25 µg/mL; in data set [5], 0.5 µg/mL; in data set [7] it was 0.5 µg/mL. For the same substance, the MIC in [8] came to 0.5 µg/mL; in [9] it was 0.125 µg/mL; in [10], 2 µg/mL; in data set [11] it was 0.06 µg/mL.

Consider “NTrp -(n-Undecanoyl)-A54145A Nucleus [Compound 2]”, for which the MIC in data set [1] was found to be 2 µg/mL; in data set [2], 32 µg/mL; in data set [3], 4 µg/mL; in [4], 4 µg/mL; in [5], 4 µg/mL; in [7], 2 µg/mL. Further, the minimum inhibitory concentration (MIC) is 2 µg/mL in data set [8], 2 µg/mL in [9], 16 µg/mL in data set [10] and 0.5 µg/mL in data set [11]. In addition, the “ED50 vs. Streptococcus pyogenes” value in the data set with Streptococcus pyogenes is recorded as 1.65 mg/kg × 2. Also, the “Median Lethal Dose” value in [6] is on record as > 520 mg/kg.
